Measured values: patent publication US10350240B2, “Lanthanum carbonate hydroxide, lanthanum oxycarbonate and methods of their manufacture and use” (Spectrum Pharmaceuticals, Inc., priority 2010, dated 2019)
Each block holds one compound with its values, some of them ahead of it.

Assays:
BET surface area = format: physicochemical; details: for Surface Area, BET Surface area (m^2/g): nitrogen adsorbate; for BET surface area of the material tested: material tested in FIG. 10
From the text: (§1) By “relatively greater” it is meant that if the processes of the '782 patent and those of the present invention were run under generally identical conditions but with, for example, ammonium carbonate or bicarbonate used instead of sodium carbonate, the surface area, as measured by BET or otherwise, of the LCH or lanthanum oxycarbonates of the present invention would be even higher than that resulting from the practice of the '782 patent. The ammonium carbonate process of the present invention should yield BET surface areas (SA) in the 1 to 100 m^2/g range for LCH. […] To this end, as used herein “relatively greater BET surface area” refers to the greater BET surface area of the LDOC compound of the present invention when compared to the respective compound in U.S. Pat. No. 7,588,782 when made using similar ingredients, and under similar conditions but using the process described in that patent. As noted above, both processes are capable of producing very fine particles/high surface area. Again without wishing to be bound by any particular theory of operation, it may be that the greater porosity of the materials resulting from the present invention may effectively increase the overall surface area (or more reactive surfaces) allowing for, inter alia, improved binding kinetics. This is predicated on the porosity of individual or primary particles, not aggregates. Thus, it is believed that the primary particles of the invention provide relatively greater porosity than would be measured for particles made in accordance with the '782 patent. […] Furthermore, “porosity” as used herein means cumulative adsorption pore volume determined using a static pressure surface area analyzer with nitrogen as the adsorbate and calculating the pore size by The Barrett, Joyner, and Halenda (BJH) method (Barrett E. P., Loyner L. G. and Halenda P. P., The determination of pore volume and area distributions in porous substances. I. Computations from nitrogen isotherms, J. Am. Chem. Soc. 73 (1951) pp. 373-380).
As contemplated herein, BET surface area of the lanthanum compounds disclosed herein may be determined as provided in U.S. Pat. No. 7,588,782.

Bulk density = format: physicochemical; details: Renazorb-013 (LCH), second block
Description: Bulk density in accordance with the invention can be determined by standard methods.
Graduated Cylinder Tare Weight was determined to be 225 g. 75 grams of sample was sieved into the graduated cylinder. The Gross Weight was determined to be 299.4 g. The volume of this sample was measured to be 141 mL. Thus, the Bulk Density of the powder is: Bulk Density (g/cc)=(299.4−225)/141=74.4/141=0.5277 g/cc Rounding this value to two decimal places gives a final reported value of 0.53 g/cc. 9.2 RSD=(R1−R2)×100/R1 where: RSD=Relative Standard Deviation (%) R1 & R2=Result of individual repeat (g/cc) 9.3 SR=R×100/V where: SR=Standard Recovery (%) R=Result for Reference Standard (g/cc) V=Historical average for standard (g/cc)

[1] = Porosity (BJH pore volume, pore size; nitrogen adsorption, Micromeritics TriStar 3000); format: physicochemical; details: for Pore Size, Adsorption pore diameter (nm): BJH adsorption; for Pore volume, Adsorption (cumulative) (cm^3/g) / Surface Area, Adsorption (cumulative) (m^2/g): BJH adsorption cumulative; for Pore Size, Desorption pore diameter (nm): BJH desorption; for Pore volume, Desorption (cumulative) (cm^3/g) / Surface Area, Desorption (cumulative) (m^2/g): BJH desorption cumulative; for Pore volume, Total-<6.4182 nM (cm^3/g): pores <6.4182 nM
From the text: as §1
“Pore volume” as used herein refers to the cumulative adsorption pore volume. In one embodiment, the cumulative adsorption pore volume of the LDOC of the present invention is at least 0.015 cm^3/g. In another embodiment, it is at least 0.020 cm^3/g.
The porosity of the LDOC compound referred to herein as RZB-014 was analyzed and compared to that of the LDH and LDOC compounds of the '782 patent discussed above on a Micromeritics TriStar 3000 static pressure surface area analyzer using nitrogen as the adsorbate. The Barrett, Joyner, and Halenda (BJH) method was used to calculate pore size. This method uses the Kelvin model of pore filling and applies only to the mesopore (internal width between approximately 2 and 50 nm) and small macropore size range (internal width between 50 nm and approximately 300 nm).

[2] = Phosphate binding kinetics at constant pH, ICP-OES (FIG. 10); details: for phosphate binding at a pH of 3 or below: comparison of both LDOC materials; for amount of phosphate bound in 60 minutes: pH of about 6.5, 60 minutes, FIG. 10
From the text: FIG. 10 provides a graphical representation of the binding kinetics of LCH and a lanthanum oxycarbonate in accordance with the '782 patent (RZB-011, RZB-012), and LCH/La2O2CO3 produced in accordance with the present invention (RZB-013 and RZB-014) at 10, 20, 30, 40, […]
It is preferred that the amount of polymorph 037-0804 exceeds that of any other polymorph by weight. In one embodiment, the amount of polymorph 037-0804 is more than 50% of all polymorphs present and, in another embodiment, at least 90% of the polymorphs present of LDOC is La2O2CO3. In another embodiment, polymorph 037-0804 (La2O2CO3) is present in an amount of at least 95% by weight relative to other polymorphs and in still another embodiment, at least 99% by weight. It has also been determined that the phosphate binding kinetic of LDOC resulting from the present invention versus LDOC resulting from the process of the '782 patent are different as well. […] In one embodiment, therefore, the lanthanum oxycarbonate and, in another embodiment, the LDOC of the inventions have a binding kinetic at pH 6.5 at 60 minutes, of at least 150 mg PO4 per gram of lanthanum oxycarbonate/LDOC. In another embodiment, the lanthanum oxycarbonate and LDOC of the invention have a binding kinetic of at least about 180 mg PO4 per gram compound and in still a further embodiment, at least about 200 mg PO4 per gram compound. The BET surface area of the material tested was 6-7 m^2/g for RZB012 (lanthanum oxycarbonate in accordance with the '782 patent) and was about 33.9 for La2O2CO3 in accordance with the invention. Moreover, it is believed that the porosity, bulk density and flow characteristics of LDOC made in accordance with the present invention surpassed those made in accordance with the teachings of the '782 patent.
Phosphate binding kinetics and binding capacity as illustrated in FIG. 10 as described herein (particularly with regard to RZB-012) can be measured as follows:
Stock phosphate solution (0.00527 mol PO43—per Liter—500 mg PO43—per Liter)
3. Using a graduated cylinder measure out 1.0 L of the stock phosphate solution
4. Add the phosphate solution to a 1.5 L Pyrex beaker. The beaker should be sufficiently large to contain the phosphate solution and allow for a 30% volume increase
5. Run at ambient […] or 37° C. as indicated in the analytical request. If 37° C. is requested place the 1.5 L beaker containing the 1.0 L of test solution on a temperature controlled hot plate. Set temperature to 37° C. […] 6. Stir the solution constantly using an electric stirrer equipped with an impeller. Stir rate should be […] (verify with tachometer). 7. Using a 10 ml syringe remove 5 mls of solution and dispense it into a labeled sample tube. This is the T=0 sample 8. […]

[3] = at 10 minutes, pH 3, FIG. 20 of the '782 patent; cited from earlier work

Compound: O=C([O-])[O-].[La+3].[OH-] [Batch 101008, lanthanum carbonate hydroxide]
Surface Area (BET surface area; Renazorb-013 (LCH), second block of experiments): 14.3 m^2/g | Bulk Density (Bulk density): 0.15 g/cc

Compound: O=C([O-])[O-].[La+3].[OH-] [RZB-011, lanthanum carbonate hydroxide]
pore diameter comparison [1]: not much difference in the values of pore diameter

Compound: O=C([O-])[O-].[La+3].[La+3].[O-2].[O-2] [RZB-14 (264314)]
Surface Area, BET Surface area (m^2/g) (BET surface area): 32.0039 m^2/g | Pore Size, Average pore width (nm) [1]: 3.404 nm | Pore Size, Adsorption pore diameter (nm) [1]: 5.7595 nm | Pore volume, Adsorption (cumulative) (cm^3/g) [1]: 0.0499 cm^3/g | Surface Area, Adsorption (cumulative) (m^2/g) [1]: 34.6533 m^2/g | Pore Size, Desorption pore diameter (nm) [1]: 6.0183 nm | Pore volume, Desorption (cumulative) (cm^3/g) [1]: 0.05346 cm^3/g | Surface Area, Desorption (cumulative) (m^2/g) [1]: 35.5324 m^2/g | Pore volume, Total-<6.4182 nM (cm^3/g) [1]: 0.02724 cm^3/g

Compound: O=C([O-])[O-].[La+3].[La+3].[O-2].[O-2] [RZB-14 (264317)]
Surface Area, BET Surface area (m^2/g) (BET surface area): 25.3032 m^2/g | Pore Size, Average pore width (nm) [1]: 4.699 nm | Pore Size, Adsorption pore diameter (nm) [1]: 5.5584 nm | Pore volume, Adsorption (cumulative) (cm^3/g) [1]: 0.03991 cm^3/g | Surface Area, Adsorption (cumulative) (m^2/g) [1]: 28.7342 m^2/g | Pore Size, Desorption pore diameter (nm) [1]: 4.8008 nm | Pore volume, Desorption (cumulative) (cm^3/g) [1]: 0.04068 cm^3/g | Surface Area, Desorption (cumulative) (m^2/g) [1]: 33.8946 m^2/g | Pore volume, Total-<6.4182 nM (cm^3/g) [1]: 0.02973 cm^3/g

Compound: O=C([O-])[O-].[La+3].[La+3].[O-2].[O-2] [RZB-014, Lanthanum dioxycarbonate]
BET surface area of the material tested (BET surface area): about 33.9 m^2/g | pore diameter comparison [1]: not much difference in the values of pore diameter | pore volume compared with RZB-12 and RZB-11 ([1]; both lots of RZB-14): much higher pore volumes than RZB-12 and slightly bigger pore volume than RZB-11 | surface area compared with RZB-11 & 12 ([1]; two lots of RZB-14): greater | phosphate binding at a pH of 3 or below [2]: about the same | amount of phosphate bound in 60 minutes [2]: approximately 240 mg PO4 bound per gram of compound

BET surface area of the material tested (BET surface area): 6-7 m^2/g | phosphate binding at a pH of 3 or below [2]: about the same
Compound: lanthanum oxycarbonate [RZB-012, reference compound]
pore diameter comparison [1]: not much difference in the values of pore diameter | amount of phosphate bound in 60 minutes [2]: about 118 mg PO4 bound per gram of compound

Compound: lanthanum tricarbonate tetrahydrate
percent of the available phosphate bound [3]: about 40%
